Holding throughout (assay type): cell-based
Assay [1] deals with SDF-1α induced Ca flux in SUP-T1 cells. The experiment in a line: Inhibition of chemokine (SDF-1α) induced Ca flux measured on a FLIPR. The following applies: Homo sapiens, at 20 μg/mL. As to the method: Inhibition of Chemokine Induced Ca Flux Measured on a FLIPR (Molecular Devices) Loading dye: Fluo-3, AM (Molecular Probes F-1241) is dissolved in anhydrous DMSO and stored frozen in aliquots. To increase the solubility of the dye in the loading medium, 10% (w/v) pluronic acid (Molecular Probes F-127) is added to the Fluo-3 stock solution immediately before use. buffer+0.2% BSA, pH 7.4. HBSS 10× [(w/o phenol red and sodium bicarbonate (Gibco 14 065-049)]; Hepes buffer 1M (Gibco 15 630-056), BSA (Sigma A3675). The flux buffer is vacuum-filtered and stored refrigerated for a maximum of 5 days. Before use in the experiment, the buffer is warmed at 37° C. in a waterbath. The test compounds were diluted in flux buffer at the desired concentration and added to 4 wells of a black microplate (4 parallel measurements per compound). The following control wells were used: 100% response control (no inhibition), flux buffer was added; 100% inhibition control: chemokine was added at 5-times the concentration required to induce a Ca flux. The chemokines are diluted in flux buffer to concentrations that are 4-fold higher than the desired concentrations required for stimulation of the cells (i.e. 2.5 nM for SDF-1α and 0.6 nM for RANTES). The chemokines were added to untreated 96-well Sero well compound plates (International Medical, Sterilin code 611F96). In the negative control well's (baseline monitoring), flux buffer is added instead of chemokine. As a positive control to check for dye loading efficiency, 20 μM digitonin (final concentration) was also included. The agonist plate was incubated in the FLIPR (37° C.) for 15-30 min. Cell Loading Protocol for Measuring Inhibition of SDF-1α Induced Ca Flux in SUP-T1 Cells. SUP-T1 cells were centrifuged at room temperature (RT) and re-suspended in loading medium (RPMI-1640 containing 2% FBS and 4 μM Fluo-3, AM). The cells were incubate at room temperature for 45 min. then washed twice in flux buffer then incubated in flux buffer at room temperature for 10 min. The cells were centrifuged and re-suspended in flux buffer at a density of 3×10^6 cells per mL. A 100 μL aliquot of the cell suspension (3×10^5 cells) was added to each well of a black microplate (Costar 3603), which already contains 50 μL of a solution of the test compound (at concentrations that are 3-fold higher than the desired final compound concentrations). The microplate is then gently centrifuged at room temperature. Homogeneous spreading of the cells on the bottom of the microplate wells was then confirmed with a microscope and the microplate was incubated in the FLIPR (37° C.) for 10 min. prior to testing. The FLIPR settings (camera exposure time and laser power) are adjusted to obtain initial fluorescence values between 8,000 and 10,000 units. After monitoring a 20 second-baseline, the agonist (chemokine) (50 μL) is added by automatic pipettor with black pipette tips. Fluorescence is measured simultaneously in all wells of the microplate every 2 seconds (first 2 min) and thereafter every 6 seconds (additional 2 min). The average ca-flux measured in each set of 4 identical wells (one test compound) was calculated by the FLIPR software. The compounds of the current invention are tested for inhibition of SDF-1α induced Ca flux in SUP-T1 cells using the method described above.

For assay [2], the system named is HIV-1 NL4.3 (or IIIB, CXCR4 using). Briefly: Inhibition of HIV-1 (NL4.3) replication in MT-4 cells. The following applies: Human immunodeficiency virus 1, IIIB, MT4, 120 h, MTT viability after 5 days. As to the method: Assay for Inhibition of HIV-1 (NL4.3) Replication in MT-4 Cells. Inhibition of HIV-1 NL4.3 (or IIIB, CXCR4 using) replication assays were performed as previously described (Bridger et al. J. Med. Chem. 1999, 42, 3971-3981; De […] et al. Proc. Natl. Acad. Sci, 1992, 89, 5286-5290; De […] et al. Antimicrob. Agents Chemother. 1994, 38, 668-674; Bridger et al. J. Med. Chem. 1995, 38, 366-378; Schols et al. J. Exp. Med., 1997, 186, 1383-1388). Anti-HIV activity and cytotoxicity measurements were carried out in parallel. They were based on the viability of MT-4 cells that had been infected with HIV in the presence of various concentrations of the test compounds. After the MT-4 cells were allowed to proliferate for 5 days, the number of viable cells was quantified by a tetrazolium-based colorimetric 3-(4,5-dimethylthiazol-2-yl)-2,5-diphenyltetrazolium bromide (MTT) procedure in 96-well microtrays. In all of these assays, viral input (viral multiplicity of infection, MOI) was 0.01, or 100 times the 50% cell culture infective dose (CCID50). The EC50 was defined as the concentration required to protect 50% of the virus-infected cells against viral cytopathicity. When compounds of the current invention are tested for inhibition of HIV-1 NL4.3 or IIIB replication in MT-4 cells, all show inhibition.

For assay [3], the system named is HIV-1 BaL (CCR5 using). The experiment in a line: Inhibition of HIV-1 (BaL) replication in PBMC's. The following applies: Human immunodeficiency virus 1, BAL, PHA-stimulated PBMC's, viral p24 antigen expression. As to the method: Assay for Inhibition of HIV-1 (BaL) Replication in PBMC's. When compounds of the current invention are tested for inhibition of HIV-1 BaL (CCR5 using) replication in PHA-stimulated PBMC's (peripheral blood mononuclear cells) using viral p24 antigen expression (De […] et al. Antimicrob. Agents Chemother. 1994, 38, 668-674; Schols et al. J. Exp. Med., 1997, 186, 1383-1388), all show inhibition.

Broadly, the inhibition is the percentage by which the read-out fell short of the control. Low readings indicate a weak effect, high ones a strong effect. By EC50 is commonly meant the concentration at which the effect is half-maximal. Lower therefore signals higher potency in that assay. `O=C(Nc1ccc(CN(Cc2nc3ccccc3[nH]2)C2CCCc3cccnc32)cc1)c1ccccn1` (centres unmarked) [Example 45, pyridine-2-carboxylic acid (4-{[(1 H-benzoimidazol-2-ylmethyl)-(5,6,7,8-tetrahydro-quinolin-8-yl)-amino]-methyl}-phenyl)-amide] had an inhibition at 20 µg/mL in assay [1] greater than 20%. In addition, the 50% effective concentration (EC50) in assay [2] is less than 20 µg/mL.
Compound `O=C(Nc1ccccn1)c1ccc(CN(Cc2nc3ccccc3[nH]2)C2CCCc3cccnc32)cc1` (centres unmarked) [Example 2, 4-{[(1 H-Benzimidazol-2-ylmethyl)-(5,6,7,8-tetrahydroquinolin-8-yl)amino]-methyl}-N-pyridin-2-yl-benzamide] registered an inhibition at 20 µg/mL in assay [1] greater than 20%. Further, the 50% effective concentration (EC50) in assay [2] and in assay [3] was less than 20 µg/mL in each case.
In assay [1], `O=C(NCc1ccccn1)c1ccc(CN(Cc2nc3ccccc3[nH]2)C2CCCc3cccnc32)cc1` (centres unmarked) [Example 4, 4-{[(1 H-Benzimidazol-2-ylmethyl)-(5,6,7,8-tetrahydro-quinolin-8-yl)-amino]-methyl}-N-pyridin-2-ylmethyl-benzamide] returned an inhibition at 20 µg/mL greater than 20%. Also, the EC50 in assay [2] and in assay [3] was less than 20 µg/mL each time.
Consider `O=C(NCc1ccc(CN(Cc2nc3ccccc3[nH]2)C2CCCc3cccnc32)cc1)c1ccccn1` (centres unmarked) [Example 17, Pyridine-2-carboxylic Acid 4-{[(1 H-benzimidazol-2-ylmethyl)-(5,6,7,8-tetrahydro-quinolin-8-yl)-amino]-methyl}-benzylamide], for which the inhibition at 20 µg/mL in assay [1] is greater than 20%. The concentration for a half-maximal effect (EC50) in assay [2] and in assay [3] was less than 20 µg/mL each time.
In assay [1], `O=S(=O)(NCc1ccc(CN(Cc2nc3ccccc3[nH]2)C2CCCc3cccnc32)cc1)c1ccccn1` (centres unmarked) [Example 48, Pyridine-2-sulfonic Acid 4-{[(1 H-benzoimidazol-2-ylmethyl)-(5,6,7,8-tetrahydro-quinolin-8-yl)-amino]-methyl}-benzylamide] returned an inhibition at 20 µg/mL greater than 20%. Besides, the EC50 in assay [2] and in assay [3] was less than 20 µg/mL in each case.
In the case of `O=S(=O)(NCc1ccccn1)c1ccc(CN(Cc2nc3ccccc3[nH]2)C2CCCc3cccnc32)cc1` (centres unmarked) [Example 11, 4-{[(1 H-Benzimidazol-2-ylmethyl)-(5,6,7,8-tetrahydro-quinolin-8-yl)-amino]-methyl}-N-pyridin-2-ylmethyl-benzenesulfonamide], in assay [1], the inhibition at 20 µg/mL was greater than 20%. In addition, the EC50 in assay [2] and in assay [3] was less than 20 µg/mL throughout.
`O=C(NCc1ccc(CNC2CCCc3cccnc32)cc1)c1ccccn1` (centres unmarked) [Example 16, Pyridine-2-carboxylic acid 4-[(5,6,7,8-tetrahydro-quinolin-8-ylamino)-methyl]-benzeylamide] gave an EC50 in assay [3] of less than 20 µg/mL.
Take `O=S(=O)(Nc1ccc(CN(Cc2nc3ccccc3[nH]2)C2CCCc3cccnc32)cc1)c1ccccn1` (centres unmarked) [Example 53, Pyridine-2-sulfonic acid (4-{[(1H-benzoimidazol-2-ylmethyl)-(5,6,7,8-tetrahydro-quinolin-8-yl)-amino]-methyl}-phenyl)-amide]: the concentration giving a half-maximal response (EC50) in assay [2] and in assay [3] was less than 20 µg/mL each time.

For the origin of these results see US6835731B2, “Chemokine receptor binding heterocyclic compounds” (AnorMED, Inc., priority 2000, dated 2004).
